According to article PMC4743925, “Targeting an Essential GTPase Obg for the Development of Broad-Spectrum Antibiotics” (PLoS ONE, 2016):

Legend:
ObgGC = molecular target: T1, ObgGC (Neisseria gonorrhoeae, UniProt Q5F5D9); assay: mant-nucleotide fluorescence increase; format: binding; conditions: 2 μM protein, labelled compound
T1 construct: gene obg; full-length with C-terminal 6xHis tag, expressed in E. coli BL21(DE3), IMAC and size exclusion; tag not reported cut

ObgKP = molecular target: T2, ObgKP (Klebsiella pneumoniae, UniProt A6TEK2); assay: mant-nucleotide fluorescence increase; format: binding; conditions: 2 μM protein, labelled compound
T2 construct: gene obg; residues 1-392, N-terminal 6xHis tag and TEV site (modified pCDF-Duet1, pKV1414), expressed in E. coli BL21(DE3); tag not reported cut
T2 sequence (A6TEK2 whole entry, the tested form may be a part): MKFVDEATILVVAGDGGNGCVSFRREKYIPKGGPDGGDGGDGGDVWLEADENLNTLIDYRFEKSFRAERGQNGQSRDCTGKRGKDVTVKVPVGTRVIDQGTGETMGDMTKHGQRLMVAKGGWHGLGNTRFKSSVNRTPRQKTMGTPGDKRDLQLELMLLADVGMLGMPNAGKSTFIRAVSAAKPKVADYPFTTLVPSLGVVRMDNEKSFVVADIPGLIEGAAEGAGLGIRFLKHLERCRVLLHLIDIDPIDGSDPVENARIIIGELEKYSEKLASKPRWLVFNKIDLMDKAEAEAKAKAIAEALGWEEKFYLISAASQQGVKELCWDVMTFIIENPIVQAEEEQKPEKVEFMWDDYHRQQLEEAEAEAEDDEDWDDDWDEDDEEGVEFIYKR

[1] = 0.3 μM mant-GTP, 5 mM MgCl2, 37 °C

T1 sequence (Q5F5D9 whole entry): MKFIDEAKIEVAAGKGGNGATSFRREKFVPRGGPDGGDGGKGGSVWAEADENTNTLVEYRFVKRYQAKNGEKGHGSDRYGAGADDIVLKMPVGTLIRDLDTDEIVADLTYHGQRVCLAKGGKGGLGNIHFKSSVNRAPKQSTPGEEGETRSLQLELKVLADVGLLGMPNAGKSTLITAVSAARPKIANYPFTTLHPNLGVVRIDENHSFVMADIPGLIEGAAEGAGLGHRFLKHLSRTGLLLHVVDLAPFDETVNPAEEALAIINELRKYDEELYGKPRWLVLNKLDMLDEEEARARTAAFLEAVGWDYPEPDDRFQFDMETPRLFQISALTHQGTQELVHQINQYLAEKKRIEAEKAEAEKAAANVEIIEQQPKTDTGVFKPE

With `CNc1ccccc1C(=O)O[C@H]1[C@@H](O)[C@H](n2cnc3c(=O)[nH]c(N)nc32)O[C@@H]1COP(=O)(O)OP(=O)(O)OP(=O)(O)O` [mant-GTP] the “increase in RFU” value (ObgGC; [1]) was “Assessment of mant-nucleotides binding by wild type (ObgGC) and mutated (*ObgGC)” and the “fold increase in RFU” value (ObgKP; [1]) was ~ 1.8 fold.

In the case of `CNc1ccccc1C(=O)O[C@H]1[C@@H](O)[C@H](n2cnc3c(=O)[nH]c(N)nc32)O[C@@H]1COP(=O)(O)OP(=O)(O)O` [mant-GDP], the “increase in RFU” value (ObgGC; 0.3 μM mant-GDP, no MgCl2, 37 °C) is reported as “Assessment of mant-nucleotides binding by wild type (ObgGC) and mutated (*ObgGC)” and the “fold increase in RFU” value (ObgKP; 0.3 μM mant-GDP, 37 °C) is reported as ~ 1.3 fold.
